The values below come from US12414955B2 (priority 2020, dated 2025).

Values joined by “and” are separate entries in the source; they are usually repeats but may differ in a detail not shown here. Equal entries are not always repeated.

A short description of data set [1]: in vitro. To be noted: African green monkey.
The next data set has as its system SARS-CoV-2. In words: microbe, parasite or virus in culture. Format: cell-based. To be noted: Severe acute respiratory syndrome coronavirus 2, A549, 48 h; read-out: IC50 for inhibition of SARS CoV-2 mediated cell killing.
The nature of data set [2]: in vitro. To be noted: African green monkey. The source holds these as a separate data set.
The next data set relates to SARS CoV-1. Kind of data set: organism not typed. Format: cell-based, Toronto 2 SARS CoV-1. To be noted: for average plate ZIP synergy score / maximum ZIP synergy score / concentrations at which synergy was realized: SARS CoV-1 CPE assay.
The subject of another data set is SARS CoV-2. Kind of data set: SARS CoV-2 cytopathic effect (CPE) assay in Vero E6 host cells. Format: cell-based, USA_WA1/2020 SARS CoV-2. A general note: Cytopathic effects are the visible damage that an infection or toxin causes in cultured cells.
The mark [3] stands for this setting: Compound 1 in combination with hydroxychloroquine (HCQ).
Setting [4] is: Compound 1 in combination with remdesivir.
Where [5] appears, read: combination of Compound 1 and hydroxychloroquine (HCQ).
The mark [6] stands for this setting: combination of Compound 1 and remdesivir.

Consider `C[C@@H]1COCCN1c1cc(N2CCOCC23CCC3)[nH]c(=O)c1` [Compound 5], for which the CC50 in “in vitro [1]” and in the data set “in vitro [2]” was above 10 µM throughout. Moreover, in the data set on SARS-CoV-2, the IC50 (in general, the point on the concentration scale where inhibition reaches its midpoint) is 7.73 µM.
Consider `C[C@@H]1COCCN1c1cc(N2CCCC[C@@H]2c2ccccc2)[nH]c(=O)c1` [Compound 2], for which the CC50 in the data set “in vitro [1]” and in the data set “in vitro [2]” was above 30 µM each time. Also, the IC50 in the data set on SARS-CoV-2 came out at 2.03 µM.
Take `C[C@@H]1COCCN1c1cc(N2CCCC[C@@H]2C(F)(F)F)[nH]c(=O)c1` [Compound 1]: the CC50 in the data set “in vitro [1]” and in “in vitro [2]” was above 30 µM in each case. In addition, the IC50 with SARS-CoV-2 is 0.108 µM; in the data set on SARS CoV-1 (Vero C1008, 72 h, read-out: IC50 for inhibition of SARS CoV-1 mediated cell killing) it was 0.65 µM. Also, the “average plate ZIP synergy score” value in the data set with SARS CoV-1 (setting [3]) is 13.413; in the data set on SARS CoV-1 (setting [4]), 8.304; with SARS CoV-2, 5.523 and 8.345. In addition, the “maximum ZIP synergy score” value in the data set on SARS CoV-1 (setting [3]) is 37.77; in the data set with SARS CoV-1 (setting [4]), 33.66; in the data set with SARS CoV-2 it was 32.8 and 40.8. Besides, the “concentrations at which synergy was realized” value (shortened to “concentrations”) in the data set on SARS CoV-1 (setting [5]) and in the data set with SARS CoV-1 (setting [6]) was at most 1.9 µM throughout.
As to `C[C@@H]1COCCN1c1cc(N2CCC[C@@H]2C(F)(F)F)[nH]c(=O)c1` [Compound 3], the CC50 in the data set “in vitro [1]” and in “in vitro [2]” was above 30 µM each time. Also, in the data set with SARS-CoV-2, the IC50 was above 30 µM.
As for `C[C@@H]1COCCN1c1cc(N2CCOC[C@H]2C(F)(F)F)[nH]c(=O)c1` [Compound 4], the CC50 in “in vitro [1]” and in the data set “in vitro [2]” was above 30 µM throughout. Also, the IC50 in the data set with SARS-CoV-2 is 0.52 µM.
As for `CCN(CCO)CCCC(C)Nc1ccnc2cc(Cl)ccc12` (stereo not drawn) [HCQ, hydroxychloroquine, reference compound], in the data set with SARS CoV-1 (setting [5]), the “concentrations” value is above 0.1 µM.
With `CCC(CC)COC(=O)[C@H](C)N[P@](=O)(OC[C@H]1O[C@@](C#N)(c2ccc3c(N)ncnn23)[C@H](O)[C@@H]1O)Oc1ccccc1` [Remdesivir, remdesivir, reference compound], the “concentrations” value is above 1.9 µM in the data set on SARS CoV-1 (setting [6]) and “above 0.5 μM” with SARS CoV-2.
